Blank lines part the entries; values can stand above or below the compound they belong to.
Columns and labels:
[1] = test system: larvae of the mustard beetle (Phaedon cochleariae); experiment: Phaedon test (sprayed Chinese cabbage discs); assay type: in vivo
Procedure: (§1) Phaedon Test Solvents: 78 parts by weight of acetone • • 1.5 parts by weight of dimethylformamide Emulsifier: 0.5 part by weight of alkylaryl polyglycol ether To produce a suitable preparation of active compound, 1 part by weight of active compound is mixed with the stated amounts of solvents and emulsifier and the concentrate is diluted with emulsifier-containing water to the desired concentration. Discs of Chinese cabbage (Brassica pekinensis) are sprayed with an active compound preparation of the desired concentration and, after drying, populated with larvae of the mustard beetle (Phaedon cochleariae). After the desired period of time, the activity in % is determined. 100% means that all beetle larvae have been killed; 0% means that none of the beetle larvae have been killed.

[2] = test system: caterpillars of the army worm (Spodoptera frugiperda); experiment: Spodoptera frugiperda test (SPODFR spray treatment); assay type: in vivo; conditions: for Kill rate after 7d in %: spray treatment
Procedure: Spodoptera frugiperda Test (SPODFR Spray Treatment) Solvents: 78 parts by weight of acetone • • 1.5 parts by weight of dimethylformamide Emulsifier: 0.5 part by weight of alkylaryl polyglycol ether To produce a suitable preparation of active compound, 1 part by weight of active compound is mixed with the stated amounts of solvents and emulsifier and the concentrate is diluted with emulsifier-containing water to the desired concentration. Discs of maize leaves (Zea mays) are sprayed with an active compound preparation of the desired concentration and after drying populated with caterpillars of the army worm (Spodoptera frugiperda). After the desired period of time, the activity in % is determined. 100% means that all of the caterpillars have been killed; 0% means that none of the caterpillars have been killed.

[3] = test system: Spodoptera frugiperda larvae; experiment: Spodoptera frugiperda test (treatment by watering); assay type: in vivo; conditions: for Kill rate after 14d in %: 20 ppm, treatment by watering
Procedure: Spodoptera frugiperda Test Solvent: 7 parts by weight of dimethylformamide Emulsifier: 2 parts by weight of alkylaryl polyglycol ether To produce a suitable preparation of active compound, 1 part by weight of active compound is mixed with the stated amounts of solvent and emulsifier and the concentrate is diluted with water to the desired concentration. Maize plants (Zea mays) are watered with an active compound preparation of the desired concentration and infected with Spodoptera frugiperda larvae. After the desired period of time, the kill in % is determined. 100% means that all larvae have been killed; 0% means that none of the larvae have been killed.

[4] = test system: caterpillars of the army worm (Spodoptera exigua); experiment: Spodoptera exigua test (leaf dip); assay type: in vivo
Procedure: (§2) Spodoptera exigua Test Solvent: 7 parts by weight of dimethylformamide Emulsifier: 2 parts by weight of alkylaryl polyglycol ether To produce a suitable preparation of active compound, 1 part by weight of active compound is mixed with the stated amounts of solvent and emulsifier and the concentrate is diluted with emulsifier-containing water to the desired concentration. Cabbage leaves (Brassica oleracea) are treated by being dipped into the active compound preparation of the desired concentration and populated with caterpillars of the army worm (Spodoptera exigua) while the leaves are still moist. After the desired period of time, the kill in % is determined. 100% means that all caterpillars have been killed; 0% means that none of the caterpillars have been killed.

[5] = test system: caterpillars of the cotton bollworm (Heliothis armigera); experiment: Heliothis armigera test (leaf dip); assay type: in vivo; conditions: for Kill rate after 7d in %: 20 ppm
Procedure: as §2, with “Heliothis armigera” for “Spodoptera exigua”, “Soya bean” for “Cabbage”, “(Glycine max.)” for “(Brassica oleracea)”, “cotton bollworm (Heliothis armigera)” for “army worm (Spodoptera exigua)”

[6] = test system: Spodoptera exigua, resistant strain; experiment: Spodoptera exigua test; resistant strain; assay type: in vivo; conditions: for Kill rate after 7d in %: 100 ppm, resistant strain
Procedure: Spodoptera exigua Test; Resistant Strain
Solvent: 7 parts by weight of dimethylformamide
Emulsifier: 2 parts by weight of alkylaryl polyglycol ether
To produce a suitable preparation of active compound, 1 part by weight of active compound is mixed with the stated amounts of solvent and emulsifier and the concentrate is diluted with emulsifier-containing water to the desired concentration.
Cabbage leaves (Brassica oleracea) are treated by being dipped into the active compound preparation of the desired concentration and populated with caterpillars of the army worm (Spodoptera exigua, resistant strain) while the leaves are still moist.
After the desired period of time, the kill in % is determined. 100% means that all caterpillars have been killed; 0% means that none of the caterpillars have been killed.

[7] = test system: caterpillars of the diamondback moth (Plutella xylostella); experiment: Plutella test (leaf dip); assay type: in vivo
Procedure: as §2, with “Plutella” for “Spodoptera exigua”, “Cabbages” for “Cabbage”, “diamondback moth (Plutella xylostella)” for “army worm (Spodoptera exigua)”

[8] = test system: green peach aphid (Myzus persicae); experiment: Myzus test; oral; assay type: in vivo
Procedure: Myzus Test; Oral Solvent: 80 parts by weight of acetone To produce a suitable preparation of active compound, 1 part by weight of active compound is mixed with the stated amounts of solvent and the concentrate is diluted with water to the desired concentration. Vessels are populated with all stages of the green peach aphid (Myzus persicae) which are treated by sucking the active compound preparation of the desired concentration. After the desired period of time, the activity in % is determined. 100% means that all aphids have been killed; 0% means that none of the aphids have been killed.

[9] = logP determination by HPLC (reversed-phase C18), EEC Directive 79/831 Annex V.A8; assay type: physicochemical; conditions: HPLC reversed-phase C18, 43° C., acidic range pH 2.7
Procedure: The logP values given in the tables and Preparation Examples above are determined in accordance with EEC Directive 79/831 Annex V.A8 by HPLC (High Performance Liquid Chromatography) on a reversed-phase column (C 18). Temperature: 43° C. The determination by LC-MS in the acidic range is carried out at pH 2.7 using 0.1% aqueous formic acid and acetonitrile (contains 0.1% formic acid) as mobile phases; linear gradient from 10% acetonitrile to 95% acetonitrile. Calibration is carried out using unbranched alkan-2-ones (having 3 to 16 carbon atoms) with known logP values (determination of the logP values by the retention times using linear interpolation between two successive alkanones).

[10] = test system: Diabrotica undecimpunctata; experiment: Diabrotica undecimpunctata (DIABUN) test (eggs); assay type: in vivo; conditions: for Kill rate after 2-5d in %: 300 ppm, eggs
Procedure: (§3) Diabrotica undecimpunctata (DIABUN) Solvents: 1% of N-methylpyrrolidone (NMP) • 1% of diacetone alcohol Dye: brilliant sulphoflavin for staining the water To produce a suitable preparation of active compound, the active compound is mixed with the stated amounts of solvents and the concentrate is diluted with stained water to the desired concentration. The eggs (Diabrotica undecimpunctata) are treated with an active compound preparation of the desired concentration. After the desired period of time, the activity in % is determined. 100% means that all animals have been killed; 0% means that none of the animals have been killed.

Myzus persicae = Myzus persicae test (ingestion of active compound preparation); assay type: in vivo; conditions: for Kill rate after 6-7d in %: 30 ppm, ingestion
Procedure: Myzus persicae Test Solvents: 1% of N-methylpyrrolidone (NMP) • 1% of diacetone alcohol Dye: brilliant sulphoflavin for staining the water To produce a suitable preparation of active compound, the active compound is mixed with the stated amounts of solvents and the concentrate is diluted with stained water to the desired concentration. The Myzus persicae are provided with an active compound preparation of the desired concentration for ingestion. After the desired period of time, the activity in % is determined. 100% means that all aphids have been killed; 0% means that none of the aphids have been killed.

Heliothis virescens = Heliothis virescens test (eggs); assay type: in vivo; conditions: for Kill rate after 6-7d in %: 300 ppm, eggs
Procedure: as §3, with “Heliothis virescens” for “Diabrotica undecimpunctata (DIABUN)”, “(Heliothis virescens)” for “(Diabrotica undecimpunctata)”

[11] = test system: green peach aphid (Myzus persicae); experiment: Myzus test (MYZUPE spray treatment); assay type: in vivo
Procedure: as §1, with “Myzus” for “Phaedon”, “Test (MYZUPE Spray Treatment)” for “Test”, “pekinensis), which are infested by all stages of the green peach aphid (Myzus persicae)” for “pekinensis)”, “concentration.” for “concentration and, after drying, populated with larvae of the mustard beetle (Phaedon cochleariae).”, “aphids” for “beetle larvae”

[12] = test system: green peach aphid (Myzus persicae); experiment: Myzus persicae test; systemic treatment; assay type: in vivo
Procedure: Myzus persicae Test; Systemic Treatment Solvent: 7 parts by weight of dimethylformamide Emulsifier: 2 parts by weight of alkylaryl polyglycol ether To produce a suitable preparation of active compound, 1 part by weight of active compound is mixed with the stated amounts of solvent and emulsifier and the concentrate is diluted with water to the desired concentration. The active compound preparation is mixed with water. The stated concentration refers to the amount of active compound per volume unit of water (mg/l=ppm). The treated water is filled into vessels with a pea plant (Pisum sativum) which is then infected with the green peach aphid (Myzus persicae). After the desired period of time, the kill in % is determined. 100% means that all aphids have been killed; 0% means that none of the aphids have been killed.

SMILES: O=C(Nc1c(Cl)cc(Cl)cc1C1=NOCCO1)c1cc(C(F)(F)F)nn1-c1cccc(Cl)n1 [Example I-1-1]
activity in the Phaedon test (in words) [1]: good activity
Kill rate after 7d in % ([1]; 500 g/ha): 100%
activity in the Spodoptera frugiperda test, spray treatment (in words) [2]: good activity
Kill rate after 7d in % ([2]; 500 g/ha): 100%
activity in the Spodoptera frugiperda test, watering (in words) [3]: good activity
Kill rate after 14d in % [3]: 95%
activity in the Spodoptera exigua test (in words) [4]: good activity
Kill rate after 7d in % ([4]; 20 ppm): 100%
activity in the Heliothis armigera test (in words) [5]: good activity
Kill rate after 7d in % [5]: 100%
activity in the Spodoptera exigua test, resistant strain (in words) [6]: good activity
Kill rate after 7d in % [6]: 100%
activity in the Plutella test (in words) [7]: good activity
Kill rate after 7d in % ([7]; 100 ppm): 100%
activity in the Myzus test, oral (in words) [8]: good activity

logP [9]: 3.13
SMILES: Cc1cc(Cl)cc(C2=NOCCO2)c1NC(=O)c1cc(Br)nn1-c1ncccc1Cl [Example I-1-5]
activity in the Diabrotica undecimpunctata test (in words) [10]: good activity
Kill rate after 2-5d in % [10]: 100%
activity in the Phaedon test (in words) [1]: good activity
Kill rate after 7d in % ([1]; 100 g/ha): 83%
activity in the Spodoptera frugiperda test, spray treatment (in words) [2]: good activity
Kill rate after 7d in % ([2]; 100 g/ha): 100%

logP [9]: 2.54
SMILES: Cc1cccc(C2=NOCCO2)c1NC(=O)c1cc(Cl)nn1-c1ncccc1Cl [Example I-1-7]
activity in the Myzus persicae test (in words) (Myzus persicae): good activity
Kill rate after 6-7d in % (Myzus persicae): 100%
activity in the Heliothis virescens test (in words) (Heliothis virescens): good activity
Kill rate after 6-7d in % (Heliothis virescens): 100%
activity in the Spodoptera frugiperda test, spray treatment (in words) [2]: good activity
Kill rate after 7d in % ([2]; 100 g/ha): 100%

logP [9]: 3.08
SMILES: Cc1cc(Cl)cc(C2=NOCCO2)c1NC(=O)c1cc(Cl)nn1-c1ncccc1Cl [Example I-1-9]
activity in the Myzus persicae test (in words) (Myzus persicae): good activity
Kill rate after 6-7d in % (Myzus persicae): 100%
activity in the Diabrotica undecimpunctata test (in words) [10]: good activity
Kill rate after 2-5d in % [10]: 100%
activity in the Heliothis virescens test (in words) (Heliothis virescens): good activity
Kill rate after 6-7d in % (Heliothis virescens): 100%
activity in the Phaedon test (in words) [1]: good activity
Kill rate after 7d in % ([1]; 100 g/ha): 100%
activity in the Spodoptera frugiperda test, spray treatment (in words) [2]: good activity
Kill rate after 7d in % ([2]; 100 g/ha): 100%
activity in the Spodoptera frugiperda test, watering (in words) [3]: good activity
Kill rate after 14d in % [3]: 95%
activity in the Heliothis armigera test (in words) [5]: good activity
Kill rate after 7d in % [5]: 80%

logP [9]: 2.70
SMILES: Cc1cc(Cl)cc(C2=NOCCN2)c1NC(=O)c1cc(C(F)(F)F)nn1-c1ncccc1Cl [Example I-1-18]
activity in the Phaedon test (in words) [1]: good activity
Kill rate after 7d in % ([1]; 100 g/ha): 100%
activity in the Myzus test, spray treatment (in words) [11]: good activity
Kill rate after 5d in % ([11]; 100 g/ha, 5 d, spray treatment): 100%
activity in the Spodoptera frugiperda test, spray treatment (in words) [2]: good activity
Kill rate after 7d in % ([2]; 100 g/ha): 100%
Kill rate after 14d in % [3]: 95%
activity in the Spodoptera exigua test (in words) [4]: good activity
Kill rate after 7d in % ([4]; 100 ppm): 100%
activity in the Heliothis armigera test (in words) [5]: good activity
Kill rate after 7d in % [5]: 100%
activity in the Spodoptera exigua test, resistant strain (in words) [6]: good activity
Kill rate after 7d in % [6]: 100%
activity in the Plutella test (in words) [7]: good activity
Kill rate after 7d in % ([7]; 20 ppm): 100%
activity in the Myzus persicae test, systemic treatment (in words) [12]: good activity
Kill rate after 6d in % ([12]; 20 ppm, 6 d, systemic treatment): 95%

Source: US8062995B2, “Dioxazine-substituted arylamides” (Bayer CropScience AG, priority 2005, dated 2011)
